# From US20070191335A1, “Heterocylic antiviral compounds” (priority 2006, published 2007)
# Where a name gives a salt, the structure may show the parent alone.
# Tests used:
# CCR5 = target: T1, CCR5 (Homo sapiens, UniProt P51681); assay: CCR5-Mediated CCF Assay; format: cell-based; conditions: Hela-R5 cells (gp160) co-cultured 24 hrs with CEM-NKr-CCR5-Luc cells, luciferase readout
# T1 construct: host or cells: CEM-NKr-CCR5-Luc
# Method: CCF assay was performed as described before (C. Ji, J. Zhang, N. Cammack and S. Sankuratri 2006 J. Biomol. Screen. in press). Hela-R5 cells (express gp160 from R5-tropic virus and HIV-1 T at) were plated in 384 well white culture plates (BD Bioscience, Palo Alto, Calif.) at 7.5×10^3 cells per well in phenol red-free Dulbecco's Modified Eagle Medium (DMEM) supplemented with 10% FBS, 1× Pen-Strep, 300 μg/ml G418, 100 μg/ml hygromycin, and 1 μg/ml doxycycline (Dox) (BD Bioscience, Palo Alto, Calif.), using Multimek (Beckman, Fullerton, Calif.) and incubated at 37° C. overnight to induce the expression of gp160. Ten μl diluted compounds in medium containing 5% DMSO were added to the cells, followed by the addition of CEM-NKr-CCR5-Luc (obtained from NIH AIDS Research & Reference Reagents Program) that expresses CD4 and CCR5 and carries a HIV-2 long terminal repeat (LTR)-driven luciferase reporter gene at 1.5×10^4 cells/15 μl/well and incubated for 24 hrs. At the end of co-culture, 15 μl of Steady-Glo luciferase substrate was added into each well, and the cultures were sealed and gently shaken for 45 min. The luciferase activity were measured for 10 sec per well as luminescence by using 16-channel TopCount NXT (PerkinElmer, Shelton, Conn.) with 10 min dark adaptation and the readout is count per second (CPS). For the drug interaction experiments, small molecule compounds or antibodies were serially diluted in serum-free and phenol red-free RPMI containing 5% dimethyl sulfoxide (DMSO) (CalBiochem, La Jolla, Calif.) and 1× Pen-Strep. Five μl each of the two diluted compound or mAb to be tested for drug-drug interactions were added to the Hela-R5 cells right before the addition of target cells.
# T1 sequence (P51681 whole entry): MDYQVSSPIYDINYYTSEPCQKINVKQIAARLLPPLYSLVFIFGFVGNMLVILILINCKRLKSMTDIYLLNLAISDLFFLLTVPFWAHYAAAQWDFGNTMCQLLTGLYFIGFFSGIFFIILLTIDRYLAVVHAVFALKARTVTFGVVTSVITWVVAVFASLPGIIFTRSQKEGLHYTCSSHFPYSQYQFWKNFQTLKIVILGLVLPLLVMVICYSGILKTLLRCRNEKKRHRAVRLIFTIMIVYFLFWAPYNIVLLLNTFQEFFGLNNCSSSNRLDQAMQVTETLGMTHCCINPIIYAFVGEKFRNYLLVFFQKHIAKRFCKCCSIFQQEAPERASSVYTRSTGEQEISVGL
SMILES,melting point [°C],IC50 (CCR5) [nM]
"CCOC(=O)Cn1c(C)c(C(=O)N2CC3CN(CCCN(C(=O)C4CCN(C(C)=O)CC4)c4ccc(C)c(Cl)c4)CC3C2)c(C)cc1=O (stereo not drawn) [III-1, [5-(5-{3-[(1-Acetyl-piperidine-4-carbonyl)-(3-chloro-4-methyl-phenyl)-amino]-propyl}-hexahydro-pyrrolo[3,4-c]pyrrole-2-carbonyl)-4,6-dimethyl-2-oxo-2H-pyridin-1-yl]-acetic acid ethyl ester]",88.2 to 89.1,–
"Cc1nc(Oc2cccc(C(=O)O)c2)nc(C)c1C(=O)N1CC2CN(CC[C@H](NC(=O)C3CCCC3)c3ccccc3)CC2C1 (stereo partly drawn) [Compound I-10, 3-(5-{5-[(S)-3-(cyclopentanecarbonyl-amino)-3-phenyl-propyl]-hexahydro-pyrrolo[3,4-c]pyrrole-2-carbonyl}-4,6-dimethyl-pyrimidin-2-yloxy)-benzoic acid, trifluoro acetic acid salt]",–,1.1
"Cc1nc(Oc2ccc(C(=O)OCc3ccccc3)cc2)nc(C)c1C(=O)N1CC2CN(CC[C@H](NC(=O)C3CCCC3)c3ccccc3)CC2C1 (stereo partly drawn) [Compound I-7, 4-(5-{5-[(S)-3-(Cyclopentanecarbonyl-amino)-3-phenyl-propyl]-hexahydro-pyrrolo[3,4-c]pyrrole-2-carbonyl}-4,6-dimethyl-pyrimidin-2-yloxy)-benzoic acid benzyl ester]",–,< 0.3
"Cc1nc(Oc2ccc(C(=O)O)cc2)nc(C)c1C(=O)N1CC2CN(CC[C@H](NC(=O)C3CCCC3)c3ccccc3)CC2C1 (stereo partly drawn) [Compound I-8, 4-(5-{5-[(S)-3-(cyclopentanecarbonyl-amino)-3-phenyl-propyl]-hexahydro-pyrrolo[3,4-c]pyrrole-2-carbonyl}-4,6-dimethyl-pyrimidin-2-yloxy)-benzoic acid trifluoro-acetate salt]",–,0.9
"Cc1nn(-c2ccc(C(F)(F)F)cn2)c(C)c1C(=O)N1CC2CN(CC[C@H](NC(=O)C3CCOC3)c3cccc(F)c3)CC2C1 (stereo partly drawn) [II-3, Tetrahydro-furan-3-carboxylic acid [(S)-3-{5-[3,5-dimethyl-1-(5-trifluoromethyl-pyridin-2-yl)-1H-pyrazole-4-carbonyl]-hexahydro-pyrrolo[3,4-c]pyrrol-2-yl}-1-(3-fluoro-phenyl)-propyl]-amide]",–,< 0.3
"Cc1cc(=O)n(C)c(C)c1C(=O)N1CC2CN(CC[C@H](NC(=O)C3CCC(F)(F)CC3)c3ccccc3)CC2C1 (stereo partly drawn) [III-15, 4,4-difluoro-cyclohexanecarboxylic acid {(S)-1-phenyl-3-[5-(1,2,4-trimethyl-6-oxo-1,6-dihydro-pyridine-3-carbonyl)-hexahydro-pyrrolo[3,4-c]pyrrol-2-yl]-propyl}-amide]",–,1.1
"Cc1nc(OCC(=O)OCc2ccccc2)nc(C)c1C(=O)N1CC2CN(CC[C@H](NC(=O)C3CCCC3)c3ccccc3)CC2C1 (stereo partly drawn) [Compound I-3, (5-{5-[(S)-3-(Cyclopentanecarbonyl-amino)-3-phenyl-propyl]-hexahydro-pyrrolo[3,4-c]pyrrole-2-carbonyl}-4,6-dimethyl-pyrimidin-2-yloxy)-acetic Acid Benzyl Ester]",–,0.5
"Cc1nc(NS(C)(=O)=O)nc(C)c1C(=O)N1CC2CN(CC[C@H](NC(=O)C3CCCC3)c3ccccc3)CC2C1 (stereo partly drawn) [Compound I-42, Cyclopentanecarboxylic Acid {(S)-3-[5-(2-methanesulfonylamino-4,6-dimethyl-pyrimidine-5-carbonyl)-hexahydro-pyrrolo[3,4-c]pyrrol-2-yl]-1-phenyl-propyl}-amide]",–,< 0.3
"CCOC(=O)c1cccc(Oc2nc(C)c(C(=O)N3CC4CN(CC[C@H](NC(=O)C5CCCC5)c5ccccc5)CC4C3)c(C)n2)c1 (stereo partly drawn) [Compound I-9, 3-(5-{5-[(S)-3-(Cyclopentanecarbonyl-amino)-3-phenyl-propyl]-hexahydro-pyrrolo[3,4-c]pyrrole-2-carbonyl}-4,6-dimethyl-pyrimidin-2-yloxy)-benzoic acid ethyl ester]",–,< 0.3
"COc1nc(C)c(C(=O)N2CC3CN(CC[C@H](NC(=O)C4CCCC4)c4ccccc4)CC3C2)c(C)n1 (stereo partly drawn) [Compound I-19, Cyclopentanecarboxylic Acid {(S)-3-[5-(2-methoxy-4,6-dimethyl-pyrimidine-5-carbonyl)-hexahydro-pyrrolo[3,4-c]pyrrol-2-yl]-1-phenyl-propyl}-amide]",–,0.4
"COC(=O)[C@@H](Oc1nc(C)c(C(=O)N2CC3CN(CC[C@H](NC(=O)C4CCCC4)c4ccccc4)CC3C2)c(C)n1)c1ccccc1 (stereo partly drawn) [Compound I-16, (S)-(5-{-5-[(S)-3-(Cyclopentanecarbonyl-amino)-3-phenyl-propyl]-hexahydro-pyrrolo[3,4-c]pyrrole-2-carbonyl}-4,6-dimethyl-pyrimidin-2-yloxy)-phenyl-acetic acid methyl ester]",–,1
"Cc1cc(=O)n(C)c(C)c1C(=O)N1CC2CN(CC[C@H](NC(=O)C3CCCC3)c3ccccc3)CC2C1 (stereo partly drawn) [III-13, Cyclopentanecarboxylic acid {(S)-1-phenyl-3-[-5-(1,2,4-trimethyl-6-oxo-1,6-dihydro-pyridine-3-carbonyl)-hexahydro-pyrrolo[3,4-c]pyrrol-2-yl]-propyl}-amide]",–,1.4
